Measurements as given in EPA's ToxRefDB 2.

What was measured:
[1] = test system: dog; settings: Chronic toxicity, beagle, Oral, Feed, dose end: 52 week, group: systemic
[2] = test system: rat; settings: Subchronic oral toxicity in rodents, fischer, Feed, dose end: 13 week, group: systemic
[3] = test system: rat; settings: Combined chronic toxicity/carcinogenicity, fischer, Oral, Feed, dose end: 2 year, group: systemic
[4] = test system: mouse; settings: Subchronic oral toxicity in rodents, cd1, Feed, dose end: 13 week, group: systemic, systemic / clinical chemistry / alkaline phosphatase (alp/alk) / alkaline phosphatase (alp/alk) + systemic / organ weight / liver / nos + …
[5] = test system: dog; settings: Subchronic oral toxicity in nonrodent, beagle, Feed, dose end: 13 week, group: systemic
[6] = test system: rat; settings: Multigenerational reproductive toxicity study, other, Oral, Feed, dose end: 2 generation
[7] = test system: rat; settings: Multigenerational reproductive toxicity study, sprague dawley, Oral, Feed, dose end: 2 generation
[8] = test system: mouse; settings: Carcinogenicity, cd1, Oral, Feed, dose end: 2 year, group: systemic
[9] = test system: rat; settings: Combined chronic toxicity/carcinogenicity, sprague dawley, Oral, Feed, dose end: 24 month
[10] = test system: dog; settings: Chronic toxicity, beagle, Oral, Capsule, dose end: 52 week
[11] = test system: rat; settings: Subchronic oral toxicity in rodents, wistar, Feed, dose end: 98 day, group: systemic
[12] = test system: dog; settings: Chronic toxicity, beagle, Oral, Feed, dose end: 52 week, group: systemic; remark: listed apart in the source
[13] = test system: rat; settings: Combined chronic toxicity/carcinogenicity, wistar, Oral, Feed, dose end: 24 month, group: systemic
[14] = test system: mouse; settings: Carcinogenicity, other, Oral, Feed, dose end: 24 month, group: systemic
[15] = test system: rat; settings: Prenatal developmental toxicity study, sprague dawley, Oral, Gavage/Intubation, dose end: 15 GD
[16] = test system: rabbit; settings: Prenatal developmental toxicity study, new zealand white, Oral, Gavage/Intubation, dose end: 18 GD
[17] = test system: mouse; settings: Subchronic oral toxicity in rodents, cd1, Feed, dose end: 98 day, group: systemic, systemic / organ weight / liver / absolute + systemic / organ weight / liver / relative to body weight + systemic / pathology microscopic / …
[18] = systemic / pathology microscopic / kidney / hyperplasia + systemic / in life observation / body weight / body weight gain + systemic / in …
[19] = systemic / clinical chemistry / albumin / albumin + systemic / clinical chemistry / cholesterol / cholesterol + systemic / clinical …
[20] = systemic / in life observation / body weight / body weight + systemic / in life observation / body weight / body weight gain + systemic / …
[21] = systemic / pathology microscopic / kidney / crystals + systemic / pathology microscopic / kidney / hyperplasia + systemic / organ weight / …
[22] = group: offspring, systemic / in life observation / body weight / offspring (pup) weight gain
[23] = group: parental, systemic / organ weight / liver / relative to body weight
[24] = group: parental, systemic / pathology microscopic / kidney / crystals + systemic / pathology microscopic / kidney / degeneration + systemic / pathology …
[25] = group: offspring, developmental / offspring survival late / lactation index / lactation index
[26] = group: offspring, systemic / in life observation / body weight / offspring (pup) weight
[27] = group: parental, systemic / in life observation / body weight / body weight
[28] = group: reproductive, reproductive / offspring survival early / litter size / litter size
[29] = group: reproductive, reproductive / offspring survival early / litter size / litter size + reproductive / offspring survival early / litter viability other / …
[30] = systemic / in life observation / mortality / mortality + systemic / hematology / lymphocyte / lymphocyte + systemic / in life observation / …
[31] = group: cholinesterase, cholinesterase / cholinesterase / cholinesterase / brain cholinesterase (che) + cholinesterase / cholinesterase / cholinesterase / …
[32] = group: systemic, systemic / in life observation / mortality / mortality
[33] = group: systemic, systemic / in life observation / mortality / mortality + systemic / clinical chemistry / alanine aminotransferase (alt/sgpt) / alanine …
[34] = group: cholinesterase, cholinesterase / cholinesterase / cholinesterase / brain cholinesterase (che) + cholinesterase / cholinesterase / cholinesterase / plasma …
[35] = group: systemic, systemic / in life observation / body weight / body weight gain + systemic / in life observation / food consumption / food efficiency + …
[36] = systemic / in life observation / body weight / body weight + systemic / in life observation / body weight / body weight gain + systemic / in…
[37] = systemic / clinical chemistry / alanine aminotransferase (alt/sgpt) / alanine aminotransferase (alt/sgpt) + systemic / clinical chemistry / …
[38] = systemic / pathology microscopic / spleen / hemosiderosis + systemic / pathology microscopic / liver / cytoplasmic alteration
[39] = systemic / clinical chemistry / creatinine / creatinine
[40] = systemic / clinical chemistry / albumin-globulin ratio / albumin-globulin ratio + systemic / clinical chemistry / glucose / glucose
[41] = systemic / pathology microscopic / liver / fatty change + systemic / pathology microscopic / liver / granuloma + systemic / pathology …
[42] = group: developmental, developmental / developmental malformation / bone / absent + developmental / developmental malformation / bone / delayed ossification + …
[43] = group: maternal, systemic / in life observation / clinical signs / abnormal gait + systemic / in life observation / body weight / body weight + systemic / in…
[44] = group: developmental, developmental / developmental malformation / bone / incomplete ossification
[45] = group: maternal, systemic / in life observation / body weight / body weight gain + systemic / in life observation / food consumption / food consumption

`COc1cnc(OC)n2nc(NS(=O)(=O)c3c(OCC(F)F)cccc3C(F)(F)F)nc12` [Penoxsulam] showed an LOAEL ([1]; systemic / pathology microscopic / kidney / hyperplasia) of 46.2 mg/kg/day, an LEL [1, 18] of 46.2 mg/kg/day and an NEL [1, 18] of 14.7 mg/kg/day. It also gave an NOAEL [1, 18] of 14.7 mg/kg/day, an LOAEL [2, 19] of 263 mg/kg/day and an NOAEL [2, 19] of 53.3 mg/kg/day. The LEL ([2]; systemic / in life observation / clinical signs / perineal soiling) was 52.3 mg/kg/day, the NEL ([2]; systemic / in life observation / clinical signs / perineal soiling + systemic / hematology / blood clotting / blood clotting - prothrombin …) was 5.2 mg/kg/day and the LOAEL [3, 20] was 254 mg/kg/day. It also gave an NEL [3, 20] of 5.1 mg/kg/day, an NOAEL [3, 20] of 50.9 mg/kg/day and an LEL ([3]; systemic / pathology microscopic / kidney / hyperplasia + systemic / in life observation / clinical signs / perineal soiling) of 50.9 mg/kg/day. It also gave an LEL [4] of 511 mg/kg/day, an LOAEL [4] of over 1030 mg/kg/day and an NEL [4] of 102 mg/kg/day. For the same molecule, the NOAEL [4] was at least 1030 mg/kg/day, the LOAEL ([5]; systemic / pathology microscopic / kidney / crystals + systemic / pathology microscopic / kidney / hyperplasia) was 49.4 mg/kg/day and the LEL [5, 21] was 49.4 mg/kg/day. It also gave an NEL [5, 21] of 17.8 mg/kg/day, an NOAEL [5, 21] of 17.8 mg/kg/day and an LEL ([6]; group: offspring, developmental / developmental landmark / preputial separation / preputial separation) of 100 mg/kg/day. For the same molecule, the LOAEL [6, 22] was 300 mg/kg/day, the NOAEL [6, 22] was 100 mg/kg/day and the NEL ([6]; group: offspring, systemic / in life observation / body weight / offspring (pup) weight gain + developmental / developmental landmark / preputial separation…) was 30 mg/kg/day. For the same molecule, the LEL [6, 23] was 30 mg/kg/day, the NEL [6, 23] was under 30 mg/kg/day and the LOAEL [6, 24] was 100 mg/kg/day. It also gave an NOAEL [6, 24] of 30 mg/kg/day.

In the case of `COP(=O)(OC)O/C(C)=C/C(=O)N(C)C` [Dicrotophos], the LOAEL [7, 25] is reported as over 2.53 mg/kg/day, the NOAEL [7, 25] is reported as at least 2.53 mg/kg/day and the LEL [7, 26] is reported as 0.05 mg/kg/day. It also gave an NEL [7, 26] of under 0.05 mg/kg/day, an LEL [7, 27] of 0.06 mg/kg/day and an NEL [7, 27] of under 0.06 mg/kg/day. For the same molecule, the LOAEL ([7]; group: parental, systemic / in life observation / body weight / body weight + systemic / in life observation / food consumption / food efficiency) was 0.49 mg/kg/day, the NOAEL ([7]; group: parental, systemic / in life observation / body weight / body weight + systemic / in life observation / food consumption / food efficiency + systemic…) was 0.05 mg/kg/day and the LEL [7, 28] was 0.56 mg/kg/day. It also gave an LOAEL [7, 28] of 0.56 mg/kg/day, an NEL [7, 29] of 0.05 mg/kg/day and an NOAEL [7, 29] of 0.05 mg/kg/day. For the same molecule, the LOAEL ([8]; systemic / in life observation / mortality / mortality) was 1.58 mg/kg/day, the NEL [8, 30] was 0.31 mg/kg/day and the NOAEL [8, 30] was 0.31 mg/kg/day. For the same molecule, the LEL ([8]; systemic / in life observation / mortality / mortality + systemic / pathology gross / eye / discolored) was 1.58 mg/kg/day, the LEL [9, 31] was 0.02 mg/kg/day and the LOAEL [9, 31] was 0.02 mg/kg/day. For the same molecule, the NEL [9, 31] was under 0.02 mg/kg/day, the NOAEL [9, 31] was under 0.02 mg/kg/day and the LEL [9, 32] was 0.25 mg/kg/day. For the same molecule, the LOAEL [9, 32] was 0.25 mg/kg/day, the NEL [9, 33] was 0.02 mg/kg/day and the NOAEL [9, 33] was 0.02 mg/kg/day. The LEL [10, 34] was 0.1 mg/kg/day, the LOAEL [10, 34] was 0.1 mg/kg/day and the NEL [10, 34] was 0.025 mg/kg/day. For the same molecule, the NOAEL [10, 34] was 0.025 mg/kg/day, the LOAEL ([10]; group: systemic, systemic / in life observation / body weight / body weight gain + systemic / in life observation / food consumption / food efficiency) was 0.1 mg/kg/day and the LEL [10, 35] was 0.1 mg/kg/day. The NEL [10, 35] was 0.025 mg/kg/day and the NOAEL [10, 35] was 0.025 mg/kg/day.

`CCC/C(=N\OCC)C1=C(O)CC(CC(C)SCC)CC1=O` (stereo unspecified) [Sethoxydim] gave an LOAEL [11, 36] of 196 mg/kg/day, an NEL [11, 36] of 20.1 mg/kg/day and an NOAEL [11, 36] of 60.4 mg/kg/day. It also gave an LEL ([11]; systemic / organ weight / liver / relative to body weight + systemic / pathology microscopic / liver / hypertrophy) of 60.4 mg/kg/day, an LOAEL [12, 37] of 110 mg/kg/day and an NOAEL [12, 37] of 17.5 mg/kg/day. It also gave an LEL [12, 38] of 8.7 mg/kg/day, an NEL [12, 38] of under 8.7 mg/kg/day and an LEL [13, 39] of 12 mg/kg/day. The NEL [13, 39] was under 12 mg/kg/day, the LOAEL ([13]; systemic / pathology microscopic / liver / hypertrophy) was 48 mg/kg/day and the NOAEL ([13]; systemic / pathology microscopic / liver / hypertrophy + systemic / clinical chemistry / alkaline phosphatase (alp/alk) / alkaline …) was 12 mg/kg/day. The LEL [14, 40] was 4.85 mg/kg/day, the NEL [14, 40] was under 4.85 mg/kg/day and the LOAEL [14, 41] was 41.2 mg/kg/day. It also gave an NOAEL [14, 41] of 13.8 mg/kg/day, an LEL ([15]; group: developmental, developmental / developmental malformation / bone / absent) of 180 mg/kg/day and an LOAEL [15, 42] of 650 mg/kg/day. For the same molecule, the NEL [15, 42] was 50 mg/kg/day, the NOAEL [15, 42] was 180 mg/kg/day and the LOAEL ([15]; group: maternal, systemic / in life observation / clinical signs / abnormal gait) was 180 mg/kg/day. The NEL [15, 43] was 180 mg/kg/day, the NOAEL [15, 43] was 50 mg/kg/day and the LEL ([15]; group: maternal, systemic / in life observation / clinical signs / abnormal gait + systemic / in life observation / clinical signs / anogenital staining + …) was 650 mg/kg/day. The LEL [16, 44] was 400 mg/kg/day, the LOAEL [16, 44] was 400 mg/kg/day and the NEL [16, 44] was 160 mg/kg/day. It also gave an NOAEL [16, 44] of 160 mg/kg/day, an LEL [16, 45] of 400 mg/kg/day and an LOAEL [16, 45] of 400 mg/kg/day. For the same molecule, the NEL [16, 45] was 160 mg/kg/day, the NOAEL [16, 45] was 160 mg/kg/day and the LEL [17] was 137 mg/kg/day. It also gave an LOAEL [17] of 137 mg/kg/day, an NEL [17] of 45.6 mg/kg/day and an NOAEL [17] of 45.6 mg/kg/day.
